Reference: US10947253B2, “Fused polycyclic dimers” (Ankh Life Sciences Limited, priority 2019, dated 2021)
Like-named read-outs stand apart in the source and are kept apart here.

How the values were obtained:
Assay type in all cases: cell-based
L363 = experiment: MTT growth inhibition (in vitro cytotoxicity), L363; conditions: Homo sapiens, L-363, average IC50
Description: (§1) The following Table sets forth the IC50 values of harmaline and quinoline analogs against 23 human cancer cell lines. Growth inhibition effects (in vitro cytotoxicity) on pancreatic, endometrial, breast, lung, ovarian, renal, cervical, lymphoma, and myeloma cancer cells were determined by MTT assays and represented by average IC50 values. In the Table, the results are given in terms of μM, and nd=not determined.

DoHH-2 = experiment: MTT growth inhibition (in vitro cytotoxicity), DoHH-2; conditions: Homo sapiens, average IC50
Description: as §1

MIA Paca-2 = experiment: MTT growth inhibition (in vitro cytotoxicity), MIA Paca-2; conditions: Homo sapiens, average IC50
Description: as §1

A2780 = experiment: MTT growth inhibition (in vitro cytotoxicity), A2780; conditions: Homo sapiens, average IC50
Description: as §1

KMM-1 = experiment: MTT growth inhibition (in vitro cytotoxicity), KMM-1; conditions: Homo sapiens, average IC50
Description: as §1

JIM1 = experiment: MTT growth inhibition (in vitro cytotoxicity), JIM1; conditions: Homo sapiens, average IC50
Description: as §1

human cancer cell lines = experiment: Cancer cell growth inhibition, summary over cell lines; conditions: read-out: cancer cell growth inhibition (IC50)
Description: as §1

FaDu = experiment: MTT growth inhibition (in vitro cytotoxicity), FaDu; conditions: Homo sapiens, average IC50
Description: as §1

ASPC-1 = experiment: MTT growth inhibition (in vitro cytotoxicity), ASPC-1; conditions: Homo sapiens, ASPC1, average IC50
Description: as §1

MDA-MB-468 = experiment: MTT growth inhibition (in vitro cytotoxicity), MDA-MB-468; conditions: Homo sapiens, average IC50
Description: as §1

H1975 (EGFR mut) = experiment: MTT growth inhibition (in vitro cytotoxicity), H1975 (EGFR mut); conditions: Homo sapiens, NCI-H1975, average IC50
Description: as §1

OCI-LY3 = experiment: MTT growth inhibition (in vitro cytotoxicity), OCI-LY3; conditions: Homo sapiens, average IC50
Description: as §1

KMS-34 = experiment: MTT growth inhibition (in vitro cytotoxicity), KMS-34; conditions: Homo sapiens, average IC50
Description: as §1

RPMI-8226 = experiment: MTT growth inhibition (in vitro cytotoxicity), RPMI-8226; conditions: Homo sapiens, average IC50
Description: as §1

A2780CP = experiment: MTT growth inhibition (in vitro cytotoxicity), A2780CP; conditions: Homo sapiens, A2780C/P, average IC50
Description: as §1

HEC-1a = experiment: MTT growth inhibition (in vitro cytotoxicity), HEC-1a; conditions: Homo sapiens, average IC50
Description: as §1

MOLP-8 = experiment: MTT growth inhibition (in vitro cytotoxicity), MOLP-8; conditions: Homo sapiens, average IC50
Description: as §1

SiHA = experiment: MTT growth inhibition (in vitro cytotoxicity), SiHA; conditions: Homo sapiens, average IC50
Description: as §1

BxPC-3 = experiment: MTT growth inhibition (in vitro cytotoxicity), BxPC-3; conditions: Homo sapiens, average IC50
Description: as §1

H1650(EGFR mut) = experiment: MTT growth inhibition (in vitro cytotoxicity), H1650(EGFR mut); conditions: Homo sapiens, NCI-H1650, average IC50
Description: as §1

A498 = experiment: MTT growth inhibition (in vitro cytotoxicity), A498; conditions: Homo sapiens, average IC50
Description: as §1

AN3CA = experiment: MTT growth inhibition (in vitro cytotoxicity), AN3CA; conditions: Homo sapiens, AN3-CA, average IC50
Description: as §1

HCC70 = experiment: MTT growth inhibition (in vitro cytotoxicity), HCC70; conditions: Homo sapiens, average IC50
Description: as §1

MDA-MB-231 = experiment: MTT growth inhibition (in vitro cytotoxicity), MDA-MB-231; conditions: Homo sapiens, average IC50
Description: as §1

**Q.** For `COc1ccc2c3c([nH]c2c1)C(CC(CC1NCCc2c1[nH]c1cc(OC)ccc21)c1ccccc1)NCC3` (stereo not shown) [Compound 11, 1,1′-(2-phenylpropane-1,3-diyl)bis(7-methoxy-2,3,4,9-tetrahydro-1H-pyrido[3,4-b]indole)], which IC50 (L363) is on record?
**A.** 1.92 µM

**Q.** And the IC50 (DoHH-2)?
**A.** 2.31 µM

**Q.** What about the IC50 (MIA Paca-2) of the same compound?
**A.** 2.25 µM

**Q.** What about the IC50 (A2780) of the same compound?
**A.** 3.4 µM

**Q.** What about the IC50 (KMM-1) of the same compound?
**A.** 2.05 µM

**Q.** What about the IC50 (JIM1) of the same compound?
**A.** 2.42 µM

**Q.** What about the IC50 (human cancer cell lines; cell lines not specified) of the same compound?
**A.** 2 to 4 µM

**Q.** And the IC50 (FaDu)?
**A.** 2.22 µM

**Q.** And the IC50 (ASPC-1)?
**A.** 2.4 µM

**Q.** Which IC50 (MDA-MB-468) does the source give for `COc1cc(C(Cc2nccc3ccccc23)Cc2nccc3ccccc23)ccc1O` [Compound 13, 4-(1,3-di(isoquinolin-1-yl)propan-2-yl)-2-methoxyphenol] here?
**A.** 19.6 µM

**Q.** And the IC50 (H1975 (EGFR mut))?
**A.** 42.2 µM

**Q.** And the IC50 (L363)?
**A.** 29.2 µM

**Q.** What about the IC50 (DoHH-2) of the same compound?
**A.** 19.5 µM

**Q.** What about the IC50 (OCI-LY3) of the same compound?
**A.** 36.7 µM

**Q.** What about the IC50 (KMS-34) of the same compound?
**A.** 11.8 µM

**Q.** And the IC50 (MIA Paca-2)?
**A.** 19.7 µM

**Q.** What about the IC50 (RPMI-8226) of the same compound?
**A.** 18 µM

**Q.** And the IC50 (A2780CP)?
**A.** 25.1 µM

**Q.** What about the IC50 (HEC-1a) of the same compound?
**A.** 39.8 µM

**Q.** What about the IC50 (A2780) of the same compound?
**A.** 27.2 µM

**Q.** What about the IC50 (MOLP-8) of the same compound?
**A.** 9.71 µM

**Q.** What about the IC50 (SiHA) of the same compound?
**A.** 45.2 µM

**Q.** And the IC50 (BxPC-3)?
**A.** 20.1 µM

**Q.** And the IC50 (KMM-1)?
**A.** 14.8 µM

**Q.** What about the IC50 (JIM1) of the same compound?
**A.** 29.2 µM

**Q.** And the IC50 (H1650(EGFR mut))?
**A.** 38.1 µM

**Q.** And the IC50 (A498)?
**A.** 38.5 µM

**Q.** And the IC50 (AN3CA)?
**A.** 19.5 µM

**Q.** What about the IC50 (HCC70) of the same compound?
**A.** 37.2 µM

**Q.** And the IC50 (MDA-MB-231)?
**A.** 28.2 µM

**Q.** And the IC50 (FaDu)?
**A.** 33.6 µM

**Q.** What about the IC50 (ASPC-1) of the same compound?
**A.** 49 µM

**Q.** How did the IC50 (MDA-MB-468) turn out when `COc1cc(C(Cc2ccc3ccccc3n2)Cc2ccc3ccccc3n2)ccc1O` [Compound 16, 4-(1,3-di(quinolin-2-yl)propan-2-yl)-2-methoxyphenol] was run?
**A.** 31.6 µM

**Q.** And the IC50 (H1975 (EGFR mut))?
**A.** 58.9 µM

**Q.** And the IC50 (L363)?
**A.** 29.5 µM

**Q.** And the IC50 (DoHH-2)?
**A.** 14.8 µM

**Q.** What about the IC50 (OCI-LY3) of the same compound?
**A.** 77.5 µM

**Q.** And the IC50 (KMS-34)?
**A.** 14.8 µM

**Q.** And the IC50 (MIA Paca-2)?
**A.** 24.5 µM

**Q.** And the IC50 (RPMI-8226)?
**A.** 15.2 µM

**Q.** What about the IC50 (A2780CP) of the same compound?
**A.** 22.3 µM

**Q.** What about the IC50 (HEC-1a) of the same compound?
**A.** 67.7 µM

**Q.** And the IC50 (A2780)?
**A.** 29.7 µM

**Q.** And the IC50 (MOLP-8)?
**A.** 16 µM

**Q.** And the IC50 (SiHA)?
**A.** 84.3 µM

**Q.** And the IC50 (BxPC-3)?
**A.** 19.5 µM

**Q.** And the IC50 (KMM-1)?
**A.** 17 µM

**Q.** And the IC50 (JIM1)?
**A.** 35.4 µM

**Q.** And the IC50 (H1650(EGFR mut))?
**A.** 51 µM

**Q.** And the IC50 (A498)?
**A.** 81.3 µM

**Q.** What about the IC50 (AN3CA) of the same compound?
**A.** 19.7 µM

**Q.** What about the IC50 (HCC70) of the same compound?
**A.** 35.2 µM

**Q.** And the IC50 (MDA-MB-231)?
**A.** 31.6 µM

**Q.** What about the IC50 (FaDu) of the same compound?
**A.** 49.2 µM

**Q.** And the IC50 (ASPC-1)?
**A.** 94.6 µM

**Q.** `c1ccc(C(Cc2ccc3ccccc3n2)Cc2ccc3ccccc3n2)cc1` [Compound 17, 2,2′-(2-phenylpropane-1,3-diyl)diquinoline] was tested. Which IC50 (MDA-MB-468) did it give?
**A.** 25.8 µM

**Q.** What about the IC50 (H1975 (EGFR mut)) of the same compound?
**A.** 30.1 µM

**Q.** What about the IC50 (L363) of the same compound?
**A.** 7.99 µM

**Q.** And the IC50 (DoHH-2)?
**A.** 6.9 µM

**Q.** And the IC50 (OCI-LY3)?
**A.** 23.8 µM

**Q.** And the IC50 (KMS-34)?
**A.** 7.85 µM

**Q.** And the IC50 (MIA Paca-2)?
**A.** 13.3 µM

**Q.** And the IC50 (RPMI-8226)?
**A.** 7.92 µM

**Q.** And the IC50 (A2780CP)?
**A.** 9 µM

**Q.** And the IC50 (HEC-1a)?
**A.** 25.4 µM

**Q.** And the IC50 (A2780)?
**A.** 13.3 µM

**Q.** And the IC50 (MOLP-8)?
**A.** 6.56 µM

**Q.** What about the IC50 (SiHA) of the same compound?
**A.** 23.5 µM

**Q.** And the IC50 (BxPC-3)?
**A.** 7.64 µM

**Q.** What about the IC50 (KMM-1) of the same compound?
**A.** 7.99 µM

**Q.** What about the IC50 (JIM1) of the same compound?
**A.** 11 µM

**Q.** What about the IC50 (H1650(EGFR mut)) of the same compound?
**A.** 24.6 µM

**Q.** What about the IC50 (A498) of the same compound?
**A.** 21.9 µM

**Q.** And the IC50 (AN3CA)?
**A.** 9.35 µM

**Q.** And the IC50 (HCC70)?
**A.** 17.2 µM

**Q.** And the IC50 (MDA-MB-231)?
**A.** 14.5 µM

**Q.** And the IC50 (FaDu)?
**A.** 18.6 µM

**Q.** And the IC50 (ASPC-1)?
**A.** 28.7 µM

**Q.** With `COc1ccc2nc(CC(Cc3ccc4cc(OC)ccc4n3)c3ccccc3)ccc2c1` [Compound 18, 2,2′-(2-phenylpropane-1,3-diyl)bis(6-methoxyquinoline)] as the compound, how does the IC50 (MDA-MB-468) read?
**A.** > 100 µM

**Q.** What about the IC50 (H1975 (EGFR mut)) of the same compound?
**A.** > 100 µM

**Q.** What about the IC50 (L363) of the same compound?
**A.** 17.4 µM

**Q.** And the IC50 (DoHH-2)?
**A.** 14.3 µM

**Q.** What about the IC50 (OCI-LY3) of the same compound?
**A.** 42.2 µM

**Q.** And the IC50 (KMS-34)?
**A.** 17.2 µM

**Q.** What about the IC50 (MIA Paca-2) of the same compound?
**A.** 21.9 µM

**Q.** And the IC50 (RPMI-8226)?
**A.** 17.8 µM

**Q.** What about the IC50 (A2780CP) of the same compound?
**A.** 26.6 µM

**Q.** And the IC50 (HEC-1a)?
**A.** 37.6 µM

**Q.** What about the IC50 (A2780) of the same compound?
**A.** 25.6 µM

**Q.** And the IC50 (MOLP-8)?
**A.** 15 µM

**Q.** And the IC50 (SiHA)?
**A.** > 100 µM

**Q.** And the IC50 (BxPC-3)?
**A.** 25.1 µM

**Q.** And the IC50 (KMM-1)?
**A.** 14.8 µM

**Q.** What about the IC50 (JIM1) of the same compound?
**A.** 31.7 µM

**Q.** What about the IC50 (H1650(EGFR mut)) of the same compound?
**A.** 48.5 µM

**Q.** What about the IC50 (A498) of the same compound?
**A.** > 100 µM

**Q.** And the IC50 (AN3CA)?
**A.** 41.8 µM

**Q.** And the IC50 (HCC70)?
**A.** > 100 µM

**Q.** What about the IC50 (MDA-MB-231) of the same compound?
**A.** > 100 µM

**Q.** What about the IC50 (FaDu) of the same compound?
**A.** 30.3 µM

**Q.** And the IC50 (ASPC-1)?
**A.** > 100 µM

**Q.** `COc1ccc2c3c([nH]c2c1)C(C)=NCC3` [harmaline, reference compound] was tested. Which IC50 (human cancer cell lines) did it give?
**A.** 25 µM

**Q.** `COc1cc(C=O)ccc1O` [vanillin, reference compound] was tested. Which IC50 (human cancer cell lines; cell lines not specified) did it give?
**A.** 40 µM
